Data: patent US8580762B2, “Substituted purine and 7-deazapurine compounds” (Epizyme, Inc., priority 2010, dated 2013)

biological target: DOT1L(1-416) (Homo sapiens, UniProt Q8TEK3); assay: Determination of IC50: DOT1L(1-416) methyltransferase assay, 3H-SAM, oligonucleosome substrate, Flashplate; assay type: biochemical; conditions: class symbols; read-out: DOT1L IC50
Experimental: Determination of IC50. Test compounds were serially diluted 3 fold in DMSO for 10 points and 1 μl was plated in a 384 well microtiter plate. […] 10 μl per well of substrate mix (same assay buffer with 200 nM S-[methyl-^3H]-adenosyl-L methionine, 600 nM of unlabeled […], and 20 nM oligonueleosome) was added to initiate the reaction. Reaction was incubated for 120 minutes at room temperature and quenched with 10 μl per well of 100 μM S-methyl-adenosyl-L methionine. For detection, substrate from 50 μl of reaction was immobilized on a 384 well Streptavidin coated Flashplate (Perkin Elmer) (also coated with 0.2% polyethyleneimine) and read on a Top Count scintillation counter (Perkin Elmer).

Chain of DOT1L(1-416) (Q8TEK3 1-416): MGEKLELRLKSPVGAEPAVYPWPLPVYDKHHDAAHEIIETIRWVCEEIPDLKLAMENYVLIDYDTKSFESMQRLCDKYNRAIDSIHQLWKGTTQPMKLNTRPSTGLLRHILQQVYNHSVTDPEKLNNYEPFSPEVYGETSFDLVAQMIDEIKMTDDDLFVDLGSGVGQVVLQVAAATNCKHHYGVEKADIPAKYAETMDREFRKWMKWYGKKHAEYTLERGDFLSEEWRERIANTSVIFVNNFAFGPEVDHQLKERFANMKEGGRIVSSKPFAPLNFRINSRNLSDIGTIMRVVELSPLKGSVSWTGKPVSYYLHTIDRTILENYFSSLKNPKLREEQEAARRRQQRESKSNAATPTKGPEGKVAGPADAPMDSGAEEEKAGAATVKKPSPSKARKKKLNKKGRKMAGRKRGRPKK

| SMILES | IC50 |
| --- | --- |
| CC(C)N(C[C@H]1O[C@@H](n2cnc3c(N)ncnc32)[C@H](O)[C@@H]1O)[C@H]1C[C@@H](CCc2nc3cc(C4(C)CCC4)ccc3[nH]2)C1 [Compound 28, (2R,3R,4S,5R)-2-(6-amino-9H-purin-9-yl)-5-((isopropyl((1r,3S)-3-(2-(5-(1-methylcyclobutyl)-1H-benzo[d]imidazol-2-yl)ethyl)cyclobutyl)amino)methyl)tetrahydrofuran-3,4-diol] | < 100 nM |
| CN(C[C@H]1C[C@@H](n2ccc3c(N)ncnc32)[C@H](O)[C@@H]1O)C1CC(CCc2nc3cc(C4(C)CCC4)ccc3[nH]2)C1 (stereo partly drawn) [Compound 29, (1R,2S,3R,5R)-3-(4-amino-7H-pyrrolo[2,3-d]pyrimidin-7-yl)-5-((methyl(3-(2-(5-(1-methylcyclobutyl)-1H-benzo[d]imidazol-2-yl)ethyl)cyclobutyl)amino)methyl)cyclopentane-1,2-diol] | < 100 nM |
| CN(C[C@H]1O[C@@H](n2cnc3c(N)ncnc32)[C@H](O)[C@@H]1O)[C@H]1C[C@@H](CCc2nc3cc(C4(C)CCC4)ccc3[nH]2)C1 [Compound 30, (2R,3R,4S,5R)-2-(6-amino-9H-purin-9-yl)-5-((methyl((1r,3S)-3-(2-(5-(1-methylcyclobutyl)-1H-benzo[d]imidazol-2-yl)ethyl)cyclobutyl)amino)methyl)tetrahydrofuran-3,4-diol] | < 100 nM |
| CC(C)N(C[C@H]1O[C@@H](n2cnc3c(N)ncnc32)[C@H](O)[C@@H]1O)[C@H]1C[C@H](CCc2nc3cc(C4(C)CCC4)ccc3[nH]2)C1 [Compound 31, (2R,3R,4S,5R)-2-(6-amino-9H-purin-9-yl)-5-((isopropyl((1s,3R)-3-(2-(5-(1-methylcyclobutyl)-1H-benzo[d]imidazol-2-yl)ethyl)cyclobutyl)amino)methyl)tetrahydrofuran-3,4-diol] | < 100 nM |
| CN(C[C@H]1O[C@@H](n2cnc3c(N)ncnc32)[C@H](O)[C@@H]1O)C1CC(CCc2nc3cc(C4(C)CCC4)ccc3[nH]2)C1 (stereo partly drawn) [Compound 33, (2R,3R,4S,5R)-2-(6-amino-9H-purin-9-yl)-5-((methyl(3-(2-(5-(1-methylcyclobutyl)-1H-benzo[d]imidazol-2-yl)ethyl)cyclobutyl)amino)methyl)tetrahydrofuran-3,4-diol] | < 100 nM |
| CN(C[C@H]1O[C@@H](n2cnc3c(N)ncnc32)[C@H](O)[C@@H]1O)[C@H]1C[C@H](CCc2nc3cc(C4(C)CCC4)ccc3[nH]2)C1 [Compound 34] | < 100 nM |
| CN(C[C@H]1C[C@@H](n2ccc3c(N)ncnc32)[C@H](O)[C@@H]1O)[C@H]1C[C@@H](CCc2nc3cc(C4(C)CCC4)ccc3[nH]2)C1 [Compound 36, (1R,2S,3R,5R)-3-(4-amino-7H-pyrrolo[2,3-d]pyrimidin-7-yl)-5-((methyl((1r,3S)-3-(2-(5-(1-methylcyclobutyl)-1H-benzo[d]imidazol-2-yl)ethyl)cyclobutyl)amino)methyl)cyclopentane-1,2-diol] | < 100 nM |
| CN(C[C@H]1C[C@@H](n2ccc3c(N)ncnc32)[C@H](O)[C@@H]1O)[C@H]1C[C@@H](CCc2nc3cc(OC(F)(F)F)ccc3[nH]2)C1 [Compound 37, (1R,2S,3R,5R)-3-(4-amino-7,1-pyrrolo[2,3-d]pyrimidin-7-yl)-5-((methyl((1r,3S)-3-(2-(5-(trifluoromethoxy)-1H-benzo[d]imidazol-2-yl)ethyl)cyclobutyl)amino)methyl)cyclopentane-1,2-diol] | < 100 nM |
| CCN(C[C@H]1C[C@@H](n2ccc3c(N)ncnc32)[C@H](O)[C@@H]1O)[C@H]1C[C@@H](CCc2nc3cc(C(C)(C)C)ccc3[nH]2)C1 [Compound 38, (1R,2S,3R,5R)-3-(4-amino-7H-pyrrolo[2,3-d]pyrimidin-7-yl)-5-((((1r,3S)-3-(2-(5-(tert-butyl)-1H-benzo[d]imidazol-2-yl)ethyl)cyclobutyl)(ethyl)amino)methyl)cyclopentane-1,2-diol] | < 100 nM |
| CN(C[C@H]1C[C@@H](n2ccc3c(N)ncnc32)[C@H](O)[C@@H]1O)[C@H]1C[C@H](CCc2nc3cc(C4(C)CCC4)ccc3[nH]2)C1 [Compound 39] | < 100 nM |
| CC(C)(C)c1ccc2[nH]c(CC[C@H]3C[C@@H](N(CC4CC4)C[C@H]4C[C@@H](n5ccc6c(N)ncnc65)[C@H](O)[C@@H]4O)C3)nc2c1 [Compound 40, (1R,2S,3R,5R)-3-(4-amino-7H-pyrrolo[2,3-d]pyrimidin-7-yl)-5-((((1r,3S)-3-(2-(5-(tert-butyl)-1H-benzo[d]imidazol-2-yl)ethyl)cyclobutyl)(cyclopropylmethyl)amino)methyl)cyclopentane-1,2-diol] | < 100 nM |

Further lines, results first:

| IC50 | SMILES |
| --- | --- |
| < 100 nM | CC(C)N(C[C@H]1C[C@@H](n2ccc3c(N)ncnc32)[C@H](O)[C@@H]1O)[C@H]1C[C@@H](CCc2nc3cc(C(C)(C)C)ccc3[nH]2)C1 [Compound 41, (1R,2S,3R,5R)-3-(4-amino-7H-pyrrolo[2,3-d]pyrimidin-7-yl)-5-((((1r,3S)-3-(2-(5-(tert-butyl)-1H-benzo[d]imidazol-2-yl)ethyl)cyclobutyl)(isopropyl)amino)methyl)cyclopentane-1,2-diol] |
| < 100 nM | CC(C)(C)c1ccc2[nH]c(CC[C@H]3C[C@@H](N(CC4CCC4)C[C@H]4C[C@@H](n5ccc6c(N)ncnc65)[C@H](O)[C@@H]4O)C3)nc2c1 [Compound 42, (1R,2S,3R,5R)-3-(4-amino-7H-pyrrolo[2,3-d]pyrimidin-7-yl)-5-((((1r,3S)-3-(2-(5-(tert-butyl)-1H-benzo[d]imidazol-2-yl)ethyl)cyclobutyl)(cyclobutylmethyl)amino)methyl)cyclopentane-1,2-diol] |
| < 100 nM | CC(C)(C)c1ccc2[nH]c(CCC3CC(N(C[C@H]4C[C@@H](n5ccc6c(N)ncnc65)[C@H](O)[C@@H]4O)C4CCC4)C3)nc2c1 (stereo partly drawn) [Compound 43, (1R,2S,3R,5R)-3-(4-amino-7H-pyrrolo[2,3-d]pyrimidin-7-yl)-5-(((3-(2-(5-(tert-butyl)-1H-benzo[d]imidazol-2-yl)ethyl)cyclobutyl)(cyclobutyl)amino)methyl)cyclopentane-1,2-diol] |
| < 100 nM | CC(C)(C)c1ccc2[nH]c(CCC3CC(N(CC4CC4)C[C@H]4C[C@@H](n5ccc6c(N)ncnc65)[C@H](O)[C@@H]4O)C3)nc2c1 (stereo partly drawn) [Compound 44, (1R,2S,3R,5R)-3-(4-amino-7H-pyrrolo[2,3-d]pyrimidin-7-yl)-5-(((3-(2-(5-(tert-butyl)-1H-benzo[d]imidazol-2-yl)ethyl)cyclobutyl)(cyclopropylmethyl)amino)methyl)cyclopentane-1,2-diol] |
| < 100 nM | CC(C)CN(C[C@H]1C[C@@H](n2ccc3c(N)ncnc32)[C@H](O)[C@@H]1O)C1CC(CCc2nc3cc(C(C)(C)C)ccc3[nH]2)C1 (stereo partly drawn) [Compound 45, (1R,2S,3R,5R)-3-(4-amino-7H-pyrrolo[2,3-d]pyrimidin-7-yl)-5-(((3-(2-(5-(tert-butyl)-1H-benzo[d]imidazol-2-yl)ethyl)cyclobutyl)(isobutyl)amino)methyl)cyclopentane-1,2-diol] |
| < 100 nM | CC(C)(C)c1ccc2[nH]c(CC[C@H]3C[C@@H](N(C[C@H]4C[C@@H](n5ccc6c(N)ncnc65)[C@H](O)[C@@H]4O)C4CCC4)C3)nc2c1 [Compound 46, (1R,2S,3R,5R)-3-(4-amino-7H-pyrrolo[2,3-d]pyrimidin-7-yl)-5-((((1r,3S)-3-(2-(5-(tert-butyl)-1,1-benzo[d]imidazol-2-yl)ethyl)cyclobutyl)(cyclobutyl)amino)methyl)cyclopentane-1,2-diol] |
| < 100 nM | CN(C[C@H]1C[C@@H](n2ccc3c(N)ncnc32)[C@H](O)[C@@H]1O)[C@H]1C[C@@H](CCc2nc3cc(Br)ccc3[nH]2)C1 [Compound 47, (1R,2S,3R,5R)-3-(4-amino-7H-pyrrolo[2,3-d]pyrimidin-7-yl)-5-((((1r,38)-3-(2-(5-bromo-1H-benzo[d]imidazol-2-yl)ethyl)cyclobutyl)(methyl)amino)methyl)cyclopentane-1,2-diol] |
| < 100 nM | CC(C)CN(C[C@H]1C[C@@H](n2ccc3c(N)ncnc32)[C@H](O)[C@@H]1O)[C@H]1C[C@H](CCc2nc3cc(C(C)(C)C)ccc3[nH]2)C1 [Compound 48, (1R,2S,3R,5R)-3-(4-amino-7H-pyrrolo[2,3-d]pyrimidin-7-yl)-5-((((1s,3R)-3-(2-(5-(tert-butyl)-1H-benzo[d]imidazol-2-yl)ethyl)cyclobutyl)(isobutyl)amino)methyl)cyclopentane-1,2-diol] |
| < 100 nM | CCN(C[C@H]1C[C@@H](n2ccc3c(N)ncnc32)[C@H](O)[C@@H]1O)[C@H]1C[C@H](CCc2nc3cc(C(C)(C)C)ccc3[nH]2)C1 [Compound 49, (1R,2S,3R,5R)-3-(4-amino-7H-pyrrolo[2,3-d]pyrimidin-7-yl)-5-((((1s,3R)-3-(2-(5-(tert-butyl)-1H-benzo[d]imidazol-2-yl)ethyl)cyclobutyl)(ethyl)amino)methyl)cyclopentane-1,2-diol] |
| < 100 nM | CC(C)N(C[C@H]1C[C@@H](n2cnc3c(N)ncnc32)[C@H](O)[C@@H]1O)C1CC(CCc2nc3cc(C(C)(C)C)ccc3[nH]2)C1 (stereo partly drawn) [Compound 50, (1R,2S,3R,5R)-3-(6-amino-9H-purin-9-yl)-5-(((3-(2-(5-(tert-butyl)-1H-benzo[d]imidazol-2-yl)ethyl)cyclobutyl)(isopropyl)amino)methyl)cyclopentane-1,2-diol] |
| < 100 nM | CC(C)(C)c1ccc2[nH]c(CC[C@H]3C[C@H](N(C[C@H]4C[C@@H](n5ccc6c(N)ncnc65)[C@H](O)[C@@H]4O)C4CCC4)C3)nc2c1 [Compound 51, (1R,2S,3R,5R)-3-(4-amino-7H-pyrrolo[2,3-d]pyrimidin-7-yl)-5-((((1s,3R)-3-(2-(5-(tert-butyl)-1H-benzo[d]imidazol-2-yl)ethyl)cyclobutyl)(cyclobutyl)amino)methyl)cyclopentane-1,2-diol] |
